Laboratory results taken from ChEMBL document CHEMBL6153147 (J Med Chem, 2025).

Experiments:
[1] = molecular target: Serine/threonine-protein kinase PLK1 (Homo sapiens, UniProt P53350); test: Inhibition of human PLK1 using ATF2 as substrate incubated for 40 mins in presence of [gamma-33P]ATP/Mg acetate by scintillation counting analysis
[2] = molecular target: Serine/threonine-protein kinase PLK2 (Homo sapiens, UniProt Q9NYY3); test: Inhibition of human PLK2 using ATF2 as substrate incubated for 40 mins in presence of [gamma-33P]ATP/Mg acetate by scintillation counting analysis
[3] = molecular target: Serine/threonine-protein kinase PLK3 (Homo sapiens, UniProt Q9H4B4); test: Inhibition of human PLK3 using ATF2 as substrate incubated for 40 mins in presence of [gamma-33P]ATP/Mg acetate by scintillation counting analysis
[4] = Selectivity ratio of IC50 for inhibition of human PLK2 using ATF2 as substrate to IC50 for inhibition of human PLK1 using ATF2 as substrate
[5] = Selectivity ratio of IC50 for inhibition of human PLK3 using ATF2 as substrate to IC50 for inhibition of human PLK1 using ATF2 as substrate
[6] = Solubility of compound in 0.01 M PBS at pH 7.4 assessed as fold increase equilibrated for 12 hrs by UV spectrophotometry relative to BI 2536; type: physicochemical; details: buffer, pH 7.4, 12 h
[7] = C0 in C57BL/6 mouse at 1 mg/kg, iv measured for 0.5 to 12 htr by LC-MS/MS analysis; type: ADME, organism-based; details: in vivo, time 0.5-12 hrs
[8] = Cmax in C57BL/6 mouse at 1 mg/kg, iv measured for 0.5 to […] htr by LC-MS/MS analysis; type: ADME, organism-based; details: in vivo, time 0.5-12 hrs
[9] = Tmax in C57BL/6 mouse at 1 mg/kg, iv measured for 0.5 to 12 htr by LC-MS/MS analysis; type: ADME, organism-based; details: in vivo, time 0.5-12 hrs
[10] = Half life in C57BL/6 mouse at 1 mg/kg, iv measured for 0.5 to 12 htr by LC-MS/MS analysis; type: ADME, organism-based; details: in vivo, time 0.5-12 hrs
[11] = AUC (0 to t) in C57BL/6 mouse at 1 mg/kg, iv measured for 0.5 to […] htr by LC-MS/MS analysis; type: ADME, organism-based; details: in vivo, time 0.5-12 hrs
[12] = AUC (0 to infinity) in C57BL/6 mouse at 1 mg/kg, iv measured for 0.5 to 12 htr by LC-MS/MS analysis; type: ADME, organism-based; details: in vivo, time 0.5-12 hrs
[13] = Clearance in C57BL/6 mouse at 1 mg/kg, iv measured for 0.5 to […] htr by LC-MS/MS analysis; type: ADME, organism-based; details: in vivo, time 0.5-12 hrs
[14] = MRT (0 to t) in C57BL/6 mouse at 1 mg/kg, iv measured for 0.5 to 12 htr by LC-MS/MS analysis; type: ADME, organism-based; details: in vivo, time 0.5-12 hrs
[15] = Volume of distribution at steady state in C57BL/6 mouse at 1 mg/kg, iv measured for 0.5 to 12 htr by LC-MS/MS analysis; type: ADME, organism-based; details: in vivo, time 0.5-12 hrs, read-out: Vdss
[16] = Cmax in C57BL/6 mouse at 10 mg/kg, po measured for 0.5 to […] htr by LC-MS/MS analysis; type: ADME, organism-based; details: in vivo, time 0.5-12 hrs
[17] = Tmax in C57BL/6 mouse at 10 mg/kg, po measured for 0.5 to 12 htr by LC-MS/MS analysis; type: ADME, organism-based; details: in vivo, time 0.5-12 hrs
[18] = Half life in C57BL/6 mouse at 10 mg/kg, po measured for 0.5 to 12 htr by LC-MS/MS analysis; type: ADME, organism-based; details: in vivo, time 0.5-12 hrs
[19] = AUC (0 to t) in C57BL/6 mouse at 10 mg/kg, po measured for 0.5 to […] htr by LC-MS/MS analysis; type: ADME, organism-based; details: in vivo, time 0.5-12 hrs
[20] = AUC (0 to infinity) in C57BL/6 mouse at 10 mg/kg, po measured for 0.5 to 12 htr by LC-MS/MS analysis; type: ADME, organism-based; details: in vivo, time 0.5-12 hrs
[21] = MRT (0 to t) in C57BL/6 mouse at 10 mg/kg, po measured for 0.5 to 12 htr by LC-MS/MS analysis; type: ADME, organism-based; details: in vivo, time 0.5-12 hrs
[22] = Oral bioavailability in C57BL/6 mouse at 10 mg/kg measured for 0.5 to […] htr by LC-MS/MS analysis; type: ADME, organism-based; details: in vivo, time 0.5-12 hrs
HEK-293T [23] = test: Cytotoxicity against HEK293T cells by CCK8 assay; type: toxicity, cell-based; details: human, dose 0.1-30 µM
[24] = Cytotoxicity against HEK293T cells assessed as inhibition of cell viability by CCK8 assay; type: toxicity, cell-based, HEK-293T; details: human
[25] = Cytotoxicity against HEK293T cells assessed as cell viability at 30 uM by CCK8 assay relative to control; type: toxicity, cell-based, HEK-293T; details: human, read-out: Activity
HEK-293T [26] = test: Effect on mitochondrial membrane potential in HEK293T cells at 10 uM incubated for 24 hrs by MitoTracker Red probe based analysis; type: toxicity, cell-based; details: human
[27] = Effect on mitochondrial membrane integrity in HEK293T cells at 10 uM incubated for 24 hrs by JC-1 dye based analysis; type: toxicity, cell-based; details: human, hek-293t
[28] = Effect on F-actin cytoskeleton in HEK293T cells at 10 uM incubated for 24 hrs by immunofluorescence based analysis; type: toxicity, cell-based; details: human, hek-293t
[29] = molecular target: Voltage-gated inwardly rectifying potassium channel KCNH2 (Homo sapiens, UniProt Q12809); test: Inhibition of hERG transfected in CHO cells; type: toxicity, cell-based
NCI-H460 = test: cells; details: Homo sapiens
PC-9 = test: cells; details: Homo sapiens
A549 = test: cells; details: Homo sapiens
SW-620 = test: cells; details: Homo sapiens
HL-60 = test: cells; details: Homo sapiens
K562 = test: cells; details: Homo sapiens
CCRF-CEM = test: cells; details: Homo sapiens
KG-1 = test: cells; details: Homo sapiens

Chain of Voltage-gated inwardly rectifying potassium channel KCNH2 (Q12809 whole entry): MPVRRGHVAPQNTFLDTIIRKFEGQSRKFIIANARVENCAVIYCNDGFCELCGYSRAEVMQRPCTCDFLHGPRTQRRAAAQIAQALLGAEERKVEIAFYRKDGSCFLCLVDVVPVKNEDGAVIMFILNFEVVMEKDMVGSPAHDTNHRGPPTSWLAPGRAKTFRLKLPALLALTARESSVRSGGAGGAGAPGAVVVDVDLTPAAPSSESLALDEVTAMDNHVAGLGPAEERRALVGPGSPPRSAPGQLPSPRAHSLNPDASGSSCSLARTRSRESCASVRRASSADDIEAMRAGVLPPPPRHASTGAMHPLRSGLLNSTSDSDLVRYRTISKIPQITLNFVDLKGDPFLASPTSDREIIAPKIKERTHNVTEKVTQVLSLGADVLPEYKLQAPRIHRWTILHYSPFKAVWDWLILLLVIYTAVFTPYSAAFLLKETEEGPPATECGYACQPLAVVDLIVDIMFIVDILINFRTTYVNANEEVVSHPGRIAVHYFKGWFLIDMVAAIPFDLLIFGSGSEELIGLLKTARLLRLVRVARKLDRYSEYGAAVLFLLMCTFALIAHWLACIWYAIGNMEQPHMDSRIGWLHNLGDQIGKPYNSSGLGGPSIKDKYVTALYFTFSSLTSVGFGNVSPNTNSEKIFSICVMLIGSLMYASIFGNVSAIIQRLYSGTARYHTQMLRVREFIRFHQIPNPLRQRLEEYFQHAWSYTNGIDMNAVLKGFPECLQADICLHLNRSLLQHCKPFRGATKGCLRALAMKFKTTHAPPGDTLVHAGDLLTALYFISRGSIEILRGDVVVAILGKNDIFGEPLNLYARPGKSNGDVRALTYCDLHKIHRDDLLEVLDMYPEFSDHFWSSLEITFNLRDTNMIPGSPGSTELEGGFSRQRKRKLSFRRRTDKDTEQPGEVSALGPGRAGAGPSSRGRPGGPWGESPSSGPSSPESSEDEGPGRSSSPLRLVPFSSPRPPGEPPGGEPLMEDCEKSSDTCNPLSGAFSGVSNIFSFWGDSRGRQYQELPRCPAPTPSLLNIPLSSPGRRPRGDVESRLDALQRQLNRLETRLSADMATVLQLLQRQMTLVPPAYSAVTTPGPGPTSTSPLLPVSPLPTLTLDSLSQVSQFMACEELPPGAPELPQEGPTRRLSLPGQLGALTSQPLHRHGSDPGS
Chain of Serine/threonine-protein kinase PLK2 (Q9NYY3 whole entry): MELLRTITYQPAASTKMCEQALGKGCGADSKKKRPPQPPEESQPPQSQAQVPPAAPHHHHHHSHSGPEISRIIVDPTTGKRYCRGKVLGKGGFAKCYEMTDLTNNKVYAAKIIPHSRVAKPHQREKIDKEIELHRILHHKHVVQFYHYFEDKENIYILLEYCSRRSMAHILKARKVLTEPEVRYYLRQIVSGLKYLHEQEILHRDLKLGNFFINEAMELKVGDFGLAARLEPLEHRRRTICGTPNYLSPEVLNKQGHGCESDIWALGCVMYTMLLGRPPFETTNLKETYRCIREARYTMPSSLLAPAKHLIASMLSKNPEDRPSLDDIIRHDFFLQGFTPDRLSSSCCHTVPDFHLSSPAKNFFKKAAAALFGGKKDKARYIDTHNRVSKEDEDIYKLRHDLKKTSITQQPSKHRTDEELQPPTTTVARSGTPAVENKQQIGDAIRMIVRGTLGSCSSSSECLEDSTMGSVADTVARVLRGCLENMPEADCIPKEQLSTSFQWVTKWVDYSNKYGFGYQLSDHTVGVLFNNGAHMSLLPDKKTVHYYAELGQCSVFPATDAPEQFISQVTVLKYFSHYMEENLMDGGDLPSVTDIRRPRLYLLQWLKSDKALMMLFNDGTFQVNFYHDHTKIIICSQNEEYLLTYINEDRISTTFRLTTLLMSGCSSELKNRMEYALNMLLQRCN
Chain of Serine/threonine-protein kinase PLK1 (P53350 whole entry): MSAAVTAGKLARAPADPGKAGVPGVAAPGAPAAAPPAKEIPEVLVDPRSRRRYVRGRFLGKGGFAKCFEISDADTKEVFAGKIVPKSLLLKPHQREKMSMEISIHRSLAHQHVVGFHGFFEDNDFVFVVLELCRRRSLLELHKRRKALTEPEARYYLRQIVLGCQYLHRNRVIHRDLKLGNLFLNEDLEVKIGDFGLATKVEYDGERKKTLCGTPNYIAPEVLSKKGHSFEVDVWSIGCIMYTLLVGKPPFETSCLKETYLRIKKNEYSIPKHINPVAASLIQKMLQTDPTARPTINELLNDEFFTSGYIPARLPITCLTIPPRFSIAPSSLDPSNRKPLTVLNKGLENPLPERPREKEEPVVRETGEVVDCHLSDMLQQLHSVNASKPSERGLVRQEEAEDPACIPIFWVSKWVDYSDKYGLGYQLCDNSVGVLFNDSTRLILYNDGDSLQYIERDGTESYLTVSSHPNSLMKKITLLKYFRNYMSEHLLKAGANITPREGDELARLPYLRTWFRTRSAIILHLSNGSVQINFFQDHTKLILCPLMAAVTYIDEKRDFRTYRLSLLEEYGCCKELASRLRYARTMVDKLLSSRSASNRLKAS
Chain of Serine/threonine-protein kinase PLK3 (Q9H4B4 whole entry): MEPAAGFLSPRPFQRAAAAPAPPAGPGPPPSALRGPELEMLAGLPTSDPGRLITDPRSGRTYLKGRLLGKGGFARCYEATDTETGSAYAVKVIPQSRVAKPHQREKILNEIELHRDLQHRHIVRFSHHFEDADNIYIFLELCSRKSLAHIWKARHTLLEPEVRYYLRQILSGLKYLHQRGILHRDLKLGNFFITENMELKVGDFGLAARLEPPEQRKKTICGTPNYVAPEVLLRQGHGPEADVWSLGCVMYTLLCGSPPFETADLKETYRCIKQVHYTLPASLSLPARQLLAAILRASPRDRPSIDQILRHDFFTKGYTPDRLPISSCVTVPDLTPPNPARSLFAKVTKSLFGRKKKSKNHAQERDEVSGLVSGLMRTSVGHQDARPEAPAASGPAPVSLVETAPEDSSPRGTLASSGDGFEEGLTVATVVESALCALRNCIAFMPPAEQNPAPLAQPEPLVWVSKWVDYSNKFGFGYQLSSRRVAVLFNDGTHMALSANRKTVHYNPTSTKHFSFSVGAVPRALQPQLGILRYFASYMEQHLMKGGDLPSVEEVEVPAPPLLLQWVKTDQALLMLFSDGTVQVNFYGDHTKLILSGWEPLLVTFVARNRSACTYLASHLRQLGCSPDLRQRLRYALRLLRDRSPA

Which IC50 [1] does the source give for `CC[C@@H]1C(=O)N(C)c2cnc(Nc3cc(N4CCN(C)CC4)ccc3OCCCO)nc2N1C1CCCC1` here?
Its IC50 is 20 nM.

What about the IC50 [2] of the same molecule?
Its IC50 is 4940 nM.

And the IC50 [3]?
Its IC50 is 3230 nM.

And the ratio [4]?
The ratio was 247.

And the ratio [5]?
Its ratio is 161.

What about the “fold change (FC)” value [6] of the same molecule?
Its value is greater than 2.

What about the C0 [7] of the same molecule?
The C0 was 753 ng/mL.

And the Cmax [8]?
The Cmax was 471 ng/mL.

And the Tmax [9]?
Its Tmax is 4.98 min.

What about the half-life [10] of the same molecule?
Its half-life is 40.8 min.

And the AUC(0-t) [11]?
Its AUC(0-t) is 226 ng·h/mL.

What about the AUC(0-inf) [12] of the same molecule?
The AUC(0-inf) was 228 ng·h/mL.

What about the clearance [13] of the same molecule?
Its clearance is 73 mL/min/kg.

And the MRT last [14]?
Its MRT last is 34.8 min.

And the Vd [15]?
Its Vd is 2.5 L/kg.

And the Cmax [16]?
The Cmax was 201 ng/mL.

What about the Tmax [17] of the same molecule?
The Tmax was 25.2 min.

And the half-life [18]?
The half-life was 66 min.

And the AUC(0-t) [19]?
The AUC(0-t) was 449 ng·h/mL.

What about the AUC(0-inf) [20] of the same molecule?
Its AUC(0-inf) is 452 ng·h/mL.

And the MRT last [21]?
The MRT last was 108 min.

What about the bioavailability [22] of the same molecule?
The bioavailability was 20%.

And the Activity (HEK-293T [23])?
Its Activity is “Dose-dependent-effect”.

And the IC50 [24]?
Its IC50 is 38200 nM.

And the viability at 30 µM [25]?
The viability at 30 µM was 16.5%.

What about the Activity (HEK-293T [26]) of the same molecule?
Its Activity is “Non-toxic”.

What about the Activity [27] of the same molecule?
The Activity was “Non-toxic”.

And the Activity [28]?
The Activity was “Non-toxic”.

And the IC50 [29]?
The IC50 was 13300 nM.

And the IC50 (NCI-H460)?
The IC50 was 32 nM.

What about the IC50 (PC-9) of the same molecule?
Its IC50 is 164 nM.

What about the IC50 (A549) of the same molecule?
The IC50 was 154 nM.

And the IC50 (SW-620)?
Its IC50 is 217 nM.

And the IC50 (HL-60)?
Its IC50 is 53 nM.

And the IC50 (K562)?
The IC50 was 0.67 nM.

What about the IC50 (CCRF-CEM) of the same molecule?
Its IC50 is 40 nM.

What about the IC50 (KG-1) of the same molecule?
The IC50 was greater than 10000 nM.
